According to patent publication US20250059232A1, “PENTAPEPTIDE AND USE THEREOF” (ENSOL BIOSCIENCES INC., priority 2021, published 2025):

How the values were obtained:
4T1 cells = experiment: Syngeneic model implanted with paclitaxel-resistant 4T1 cells: tumor volume, Western blot of cleaved PARP and LC3II; type: in vivo, mouse; settings: for Reduction in tumor volume compared to the group administered with only paclitaxel: Balb/c mice, 3 weeks; for Increase in cleaved PARP expression level in tumor compared to paclitaxel-only group / Reduction in LC3II expression level in tumor compared to paclitaxel-only group: Western blot after 3-week administration
Experimental: Cell death and autophagy marker changes were determined by the Western blot method, using a syngeneic model implanted with 4T1 cells (American Type Culture Collection (ATCC)), which are mouse triple negative breast cancer tumor cells resistant to paclitaxel. The drug administration was started, when the tumor volume was reached to 70 mm^3 after a fat pad of Balb/c mice (6 weeks old, female) was transplanted with 4T1 cells in a concentration of 1×10^6 cells/head. For Week 1, paclitaxel 20 mg/kg was administered on Day 1 and Day 2, and the peptide (10, 100 mg/kg) of Example 1 was co-administered on Day 3, Day 5, and Day 7. In addition, the same process was performed for each of Week 2, and Week 3 (n=3). The tumor volumes were measured daily because the tumors grew very quickly. The changes in cleaved PARP, which is a cell death marker, and the changes in LC3II, which is an autophagy marker, in tumors were analyzed after necropsy on the day after the end of the 3-week administration, by a Western blot test.
FIG. 5 is a graph illustrating the results of tumor volume measurements according to the number of days after treatment in animal experimentation. In FIG. 5, the x-axis represents the number of days elapsed after treatment and the y-axis represents the tumor volume change (mm^3).
In addition, the changes in cleaved PARP, which is a cell death marker, are shown in FIG. 6, and the changes in LC3II, which is an autophagy marker, are shown in FIG. 7. FIG. 6 is a graph showing the changes in expression of cleaved PARP, which is a cell death marker, for each treatment group in animal experimentation, and FIG. 7 is a graph showing the changes in expression of LC3II, which is an autophagy marker, for each treatment group in animal experimentation.

[1] = 4-week repeated subcutaneous toxicity and toxicokinetic test in beagle dogs; type: in vivo, beagle dog
Experimental: In addition, 3 female and male beagle dogs were used per group to repeatedly subcutaneously administer the pentapeptide of Example 1 at doses of 40, 120, 400 mg/kg for 4 weeks daily. During the test period, general symptom observation, weight and feed intake measurements, ophthalmological examination, electrocardiogram, urinalysis, hematology and clinical biochemistry test, and toxicokinetic examination were performed. In addition, organ weight measurements, visual inspection, and histopathological examination of autopsy subjects were performed. […] Thus, the NOAEL (No Observed Adverse Effect Level) of the pentapeptide of Example 1 for female and male beagle dogs under the presented test conditions is determined to be 400 mg/kg/day.

PC3 = PC3 cell viability (CCK-8) in NK92 co-culture with anti-PD-L1; type: cell-based, human; settings: 300 uM with 10 ug/ml anti-PD-L1, 24/48/72 hours of co-culturing
Experimental: (§1) The experiment described below was performed to evaluate the tumor cell proliferation inhibitory effect of the combination treatment of the peptide of Example 1 and the anti-PD-L1, which is an immune checkpoint inhibitor. First, 5×10^3 cells of a human prostate cancer cell line PC3, 5×10^3 cells of a human lung cancer cell line A549 (Korean Cell Line Bank), and 1×10^4 cells of a human triple negative breast cancer cell line MDA-MB-231 (ATCC) were seeded in 96 wells and stabilized by culturing overnight. Then, the seeded cells were treated with 10 ug/ml of the anti-PD-L1 and 300 uM of the peptide of Example 1, for each condition while NK92 cells for 5×10^3 cells of each of the PC3 cell line and the MDA-MB-231 cell line and 2.5×10^3 cells of the A549 cell line were additionally seeded. After 24/48/72 hours of co-culturing (for PC3 and MDA-MB-231) and 24/48 hours of co-culturing (for A549), the NK92 cells were removed by washing, and the cancer cell viability was measured by CCK-8 addition. FIG. 15 is a graph illustrating the changes in PC3 cell viability over culturing time for each test group in an anticancer effect evaluation test. In FIG. 15, the x-axis represents culturing time and the y-axis represents cell viability (%). FIG. 16 is a graph illustrating the changes in A549 cell viability over culturing time for each test group in an anticancer effect evaluation test. […]

MDA-MB-231 = MDA-MB-231 cell viability (CCK-8) in NK92 co-culture with anti-PD-L1; type: cell-based, human; settings: 300 uM with 10 ug/ml anti-PD-L1, 24/48/72 hours of co-culturing
Experimental: as §1

[2] = 10 mg/kg co-administered with paclitaxel
[3] = 100 mg/kg co-administered with paclitaxel, p<0.05
[4] = 40, 120, 400 mg/kg subcutaneous daily for 4 weeks

Ac-QLHLD-OH [Example 1, acetyl-QLHLD]
Reduction in tumor volume compared to the group administered with only paclitaxel (4T1 cells; 10 mg/kg co-administered with paclitaxel 20 mg/kg): 20%
Increase in cleaved PARP expression level in tumor compared to paclitaxel-only group (4T1 cells; [2]): 2 fold
Reduction in LC3II expression level in tumor compared to paclitaxel-only group (4T1 cells; [2]): 38%
Reduction in tumor volume compared to the group administered with only paclitaxel (4T1 cells; 100 mg/kg co-administered with paclitaxel 20 mg/kg): 40%
Increase in cleaved PARP expression level in tumor compared to paclitaxel-only group (4T1 cells; [3]): 3 fold
Reduction in LC3II expression level in tumor compared to paclitaxel-only group (4T1 cells; [3]): 86%
Abnormalities (body weight, feed intake, ophthalmic examination, electrocardiogram, urinalysis, hematology, clinical biochemistry, necropsy, organ weight) [1, 4]: No abnormalities
Deaths [1, 4]: no deaths were observed
Systemic exposure (AUClast, Cmax), dose dependence ([1]; Day 1 and Day 28, 40, 120, 400 mg/kg): approximately proportionally increased with increase in the dose
Accumulation ([1]; Day 1 vs Day 28): no pentapeptide accumulation
NOAEL at 4 weeks ([1]; both sexes, dog, in vivo, sc, female and male, subcutaneous, daily for 4 weeks, read-out: NOAEL (No Observed Adverse Effect Level)): 400 mg/kg/day
Cancer cell viability compared to the group treated with only anti-PD-L1 (PC3): significant decrease in cancer cell viability
Cancer cell viability compared to the group treated with only anti-PD-L1 (MDA-MB-231): significant decrease in cancer cell viability
